Results as given in patent publication US20050256308A1, “Spiro compounds, medicinal compositions containing the same and intermediates of the compounds” (Dainippon Pharmaceutical Co., Ltd., priority 2002, published 2005).
Counter-ions that a name gives are not always drawn.

How the values were obtained:
[1] = tested on: ovariectomized rats; test: Luteinizing hormone (LH) level in serum of ovariectomized rats; assay type: in vivo; conditions: ovariectomized rat; for Serum LH: oral once a day for two weeks
Procedure: (§1) A test compound was dissolved in 10% aqueous cyclodextrin solution and orally administered to ovariectomized rats once a day for two consecutive weeks. The blood was drawn under ether anesthesia. The blood sample was allowed to coagulate at room temperature for 1 hr and centrifuged at 3000 rpm for 10 min to give serum. The amount of LH in serum was measured using a rat LH radioimmunoassay kit (manufactured by Immunotec Research Ltd., France).

[2] = tested on: Jcl:SD male rats; test: Effect on serum cholesterol level in rat; assay type: in vivo; conditions: for Blood cholesterol: oral once a day for 4 days; for Blood cholesterol lowering action: summary of Table 6(1) and 6(2)
Procedure: A test compound was dissolved in 10% aqueous cyclodextrin solution, and orally administrated to 7-week-old Jcl:SD male rats (manufactured by CLEA Japan, Inc.) once a day for 4 consecutive days. The blood was drawn on the next day of the final administration, and plasma cholesterol was measured using a measurement kit (cholesterol CII-testwako, manufactured by Wako Pure Chemical Industries, Ltd.).

[3] = tested on: ovariectomized rats; test: Effects on climacteric syndrome (hot flash-like symptom): tail skin temperature of ovariectomized rats; assay type: in vivo, rat; conditions: for Effect on the action of β-estradiol on the tissues involved in the hot flash-like symptom: combined use, summary of Table 3; for Effect on hot flash-like symptom: summary of Table 2
Procedure: The effect of the compound of the present invention on climacteric syndrome was investigated using ovariectomized rats. The ovariectomized rats were prepared by removing the ovary on the both sides from 8-week-old Jcl:SD female rats (manufactured by CLEA Japan, Inc.) under ether anesthesia. The rats were bred under the conditions of illumination for 12 hours (6:00-18:00) every day, room temperature 24±0.5° C., and were allowed free intake of solid feed (CE-2, manufactured by CLEA Japan, Inc.) and water. The rats after 2 weeks of ovariectomy were subjected to the following experiment. The rats to be used for sham surgery group were treated in the same manner except ovariectomy.
The rats after 2 weeks of ovariectomy and sham surgery were subjected to the measurement of tail skin temperature by reference to the method of Hosono et al. (Am. J. Physiol. Regulatory Integrative Comp. Physiol. 280: R1341-R1347, 2001) without anesthesia. To be specific, a temperature sensor (SXK-67, manufactured by TAKARA THERMISTOR) was fixed at 5 cm from the base of the tail of the rats with an adhesive plaster (manufactured by NICHIBAN), and covered with an aluminum plate. The other end of the temperature sensor was connected to a fluclet (manufactured by DAINIPPON PHARMACEUTICAL CO., LTD.) via an amplifier (E332, manufactured by TAKARA THERMISTOR) and measurement and analysis were performed for 2 hr. The results are shown in Table 1, wherein an incidence of a hot flash-like symptom was confirmed at the tail of the ovariectomized rats.
A test compound was dissolved in a solvent (10% aqueous cyclodextrin solution), and orally administered to ovariectomized rats once a day for two consecutive weeks. The tail skin temperature was measured in the same manner as in the aforementioned method on the day of the final administration.

[4] = tested on: ovariectomized rats; test: Uterus weight of ovariectomized rat (side effects); assay type: in vivo; conditions: for Uterus weight: ovariectomized rat
Procedure: as §1
To investigate the side effects of the compound of the present invention, the test compound was orally administered consecutively to ovariectomized rats and sham surgery rats in the same manner as in Experimental Example 1b, the uterus was removed and weighed.

[5] = tested on: ovariectomized rats; test: Effect on decreased femur bone density of ovariectomized rat (pQCT); assay type: in vivo; conditions: for Bone density: femural metaphysis, oral once a day for 4 weeks; for Effect on decrease in the bone density due to ovariectomy: summary of Table 5(1) and 5(2)
Description: The ovary on the both sides of 13-week-old Jcl:SD female rats (manufactured by CLEA Japan, Inc.) were removed under ether anesthesia or the rats were subjected to a sham surgery, and a test compound dissolved in 10% aqueous cyclodextrin solution was orally administrated from the next day once a day for 4 consecutive weeks (10 rats/group). The rats were sacrificed by hemorrhage on the next day of the final administration and the left femur was removed. The bone density of the femural metaphysis was measured using pQCT [peripheral Quantitative Computed Tomography, XCT-960A, manufactured by Norland-Stratec].

[6] = Table 2, oral once a day for two weeks, dose 0.1 mg/kg
[7] = Table 2, oral once a day for two weeks, dose 1.0 mg/kg
[8] = Table 2, oral once a day for two weeks, dose 10.0 mg/kg
[9] = Table 7, oral once a day for two weeks, dose 1.0 mg/kg

Compound	Blood cholesterol ([2]; Table 6(1), dose 0.3 mg/kg) [mg/dL]	Blood cholesterol lowering action [2]	Average tail skin temperature [3, 6] [°C]	Average tail skin temperature [3, 7] [°C]	Average tail skin temperature [3, 8] [°C]	Effect on the action of β-estradiol on the tissues involved in the hot flash-like symptom [3]	Effect on hot flash-like symptom [3]	Uterus weight [4, 9] [mg]	Bone density ([5]; Table 5(1), dose 1.0 mg/kg) [mg/mL]	Effect on decrease in the bone density due to ovariectomy [5]	further results
Oc1ccc2c(c1)CCC21C=C(c2ccc(OCCN3CCCCC3)cc2)c2cc(O)ccc21 (stereo not shown) [Example 1, 3-[4-(2-piperidinoethoxy)phenyl]spiro[indene-1,1′-indan]-5,5′-diol hydrochloride]	41.6 ± 5.2	significant blood cholesterol lowering action at a lower dose than β-estradiol	29.4 ± 0.3	28.9 ± 0.4	28.0 ± 0.5	did not inhibit the action of β-estradiol	improved the hot flash-like symptom	178.6 ± 9.3	738.0 ± 47.9	significantly suppressed the decrease in the bone density	Serum LH ([1]; dose 1.0 mg/kg): 10.1 ± 0.60 ng/mL; Effect on increase in the LH amount due to ovariectomy ([1]; summary of Table 4): significantly suppressed increase in the LH amount; Blood cholesterol ([2]; Table 6(1), dose 0.03 mg/kg): 63.1 ± 4.8 mg/dL; Blood cholesterol ([2]; Table 6(1), dose 0.1 mg/kg): 53.8 ± 7.3 mg/dL; Effect on uterus weight of ovariectomized rat ([4]; summary of Table 7): does not significantly increase the uterus weight; Effect on the uterus weight increasing action of β-estradiol ([4]; summary of Table 8): significantly suppressed the uterus weight increasing action of β-estradiol
Cl.Oc1ccc2c(c1)CCC21C=C(c2ccc(OCCN3CCCCC3)cc2)c2cc(O)ccc21 (single isomer, unassigned; (+)) [Example 37, (+)-3-[4-(2-piperidinoethoxy)phenyl]spiro[indene-1,1′-indan]-5,5′-diol hydrochloride]	–	–	–	–	–	–	–	–	–	significantly suppressed the decrease in the bone density	Bone density ([5]; Table 5(2), dose 0.01 mg/kg): 551 ± 10 mg/mL; Bone density ([5]; Table 5(2), dose 0.1 mg/kg): 620 ± 15 mg/mL; Bone density ([5]; Table 5(2), dose 1.0 mg/kg): 658 ± 17 mg/mL
CC(C)CN1CCC(c2ccc(C3=CC4(CCc5cc(O)ccc54)c4ccc(O)cc43)cc2)CC1 (stereo not shown) [Example 30, 3-[4-(1-isobutyl-4-piperidinyl)phenyl]spiro[indene-1,1′-indan]-5,5′-diol hydrochloride]	–	significant blood cholesterol lowering action at a lower dose than β-estradiol	–	–	–	–	–	–	–	–	Blood cholesterol ([2]; Table 6(2), dose 1.0 mg/kg): 23.6 ± 2.2 mg/dL
C[C@]12CC[C@@H]3c4ccc(O)cc4CC[C@H]3[C@@H]1CC[C@@H]2O [β-estradiol, reference compound]	62.7 ± 7.5	–	–	–	27.7 ± 0.2	–	–	406.3 ± 20.6	767.3 ± 63.9	–	Serum LH ([1]; dose 3.0 mg/kg): 7.6 ± 0.97 ng/mL; Blood cholesterol ([2]; Table 6(1), dose 1.0 mg/kg): 42.8 ± 6.1 mg/dL; Blood cholesterol ([2]; Table 6(1), dose 3.0 mg/kg): 25.8 ± 2.0 mg/dL; Average tail skin temperature ([3]; Table 2, oral once a day for two weeks, dose 3.0 mg/kg): 28.4 ± 0.6 °C; Average tail skin temperature ([3]; Table 3, oral once a day for two weeks, single use, dose 3.0 mg/kg): 28.1 ± 0.6 °C; Uterus weight ([4]; Table 8, single administration, dose 3.0 mg/kg): 491.7 ± 19.6 mg
Cl.Oc1ccc2c(c1)CC[C@@]21C[C@@H](c2ccc(OCCN3CCCCC3)cc2)c2cc(O)ccc21 (relative stereo) [Example 36A, (1R*,3S*)-3-[4-(2-piperidinoethoxy)phenyl]-1,1′-spirobiindan-5,5′-diol hydrochloride]	–	–	29.9 ± 0.4	29.4 ± 0.4	29.0 ± 0.4	did not inhibit the action of β-estradiol	improved the hot flash-like symptom	–	–	–	–
